Results taken from publication PMC4537286, “Permeation of Therapeutic Drugs in Different Formulations across the Airway Epithelium In Vitro” (PLoS ONE, 2015).
Structures can show the parent of a compound that is named as a salt. Where two headings read alike, the source gives them in different places.

Key:
[1] = test system: Calu-3 cells; assay: Transport of aerosolized compounds across Calu-3 monolayers (AID_M MicroSprayer, AID_D DP-4 insufflator); settings: for Dye transport relative to SLE: application with DP-4 Dry Powder Insufflator (AID_D); for Dye transport relative to SLE incubation: application with MicroSprayer IA-1C Aerosolizer (AID_M)
[2] = Size of particles delivered by DP-4 Dry Powder Insufflator, bright-field microscopy; format: physicochemical; settings: roughly spherical particles
Description: Particles that were delivered by the DP-4 Dry Powder Insufflator were analyzed by bright-field microscopy. […] Sizes were measured using Cell^D Imaging software (Olympus).

[3] = Transport studies across Calu-3 monolayers, compounds applied in solution (SLE, ALE), Papp; settings: human; for Papp at 120 min, 10 μg/ml: pH 7.4, Papp values for fluorescein, n = 12
[4] = test system: Calu-3 cells; assay: as above
[5] = test system: Calu-3 cells; settings: cited from earlier work; for Papp values of rhodamine 123 reported: ref [68],[70]
[6] = test system: Calu-3 cells; settings: human, pH 7.4
[7] = in vitro; settings: human, pH 7.4, Papp
[8] = test system: Calu-3 cells
[9] = pH 7.4, Papp, SLE (submersed culture, compound in buffer), n = 4
[10] = pH 7.4, Papp, ALE (air-liquid interface culture, compound in buffer), n = 4

| Papp at 120 min [3, 9] [×10⁻⁶ cm/s] | Ratio Papp (ALE/ SLE) [4] | Dye transport relative to SLE [1] [times] | Dye transport relative to SLE incubation [1] [times] | Papp at 120 min, 10 μg/ml ([3]; Air-liquid interface culture, 0.4 μm pores) [×10⁻⁶ cm/s] | Papp at 120 min, 10 μg/ml ([3]; Air-liquid interface culture, 3 μm pores) [×10⁻⁶ cm/s] | Papp at 120 min, 10 μg/ml ([3]; Submersed culture, 3 μm pores) [×10⁻⁶ cm/s] | Papp at 120 min [3, 10] [×10⁻⁶ cm/s] | SMILES | Transport in the fixed dose combination Symbicort versus applied alone ([1]; DP-4 Dry Powder Insufflator (AID_D), n = 3) | Size of delivered single particles [2] [μm] | Papp at 120 min ([3]; pH 7.4) [×10⁻⁶ cm/s] | Amount of budesonide in the cells ([4]; cell lysis after the last sample, total recovered amount 19.3±0.7 μg) [µg] | Change of budesonide transport on co-incubation with formoterol ([4]; solution, SLE and ALE, mixture 50 μM budesonide and 0.5 mM formoterol fumarate) | Papp values of fluorescein published by other groups ([5]; SLE, ref [8],[41],[49],[65]–[69]) [x 10–6 cm/s] | Papp [6] | Ratio Papp (ALE/ SLE) [6] | Papp [7] [×10⁻⁶ cm/s] | Transport in the fixed dose combination Symbicort versus applied alone [8] | Papp values of rhodamine 123 reported ([5]; ALE) [×10⁻⁶ cm/s] | Papp values of rhodamine 123 reported ([5]; SLE) [×10⁻⁶ cm/s] |
| --- | --- | --- | --- | --- | --- | --- | --- | --- | --- | --- | --- | --- | --- | --- | --- | --- | --- | --- | --- | --- |
| 0.09 ± 0.04 | 3.00 | 131.7 | 4.3 | 0.23 ± 0.04 | 0.27 ± 0.08 | 0.09 ± 0.04 | 0.27 ± 0.08 | O=C1OC2(c3ccc(O)cc3Oc3cc(O)ccc32)c2ccccc21 [Fluorescein, Sodium fluorescein] |  | 1.1±0.3 |  |  |  | 0.1 |  |  |  |  |  |  |
|  |  |  |  |  |  |  |  | COc1ccc(CC(C)NCC(O)c2ccc(O)c(NC=O)c2)cc1 (stereo not shown) [Formoterol, formoterol fumarate dihydrate] |  |  |  |  |  |  | 1.72±0.24 10^−6 cm/s | 1.73 | 2.98 ± 0.79 | significantly higher |  |  |
| 0.07 ± 0.02 | 3.86 | 48.2 | 3.2 |  |  |  | 0.27 ± 0.09 | COC(=O)c1ccccc1-c1c2ccc(=N)cc-2oc2cc(N)ccc12 [Rhodamine 123, rhodamine 123] |  |  |  |  |  |  |  |  |  |  | 2.27 | 0.49 |

| SMILES | Papp at 120 min [3, 9] [×10⁻⁶ cm/s] | Ratio Papp (ALE/ SLE) [4] | Dye transport relative to SLE [1] [times] | Dye transport relative to SLE incubation [1] [times] | Papp at 120 min, 10 μg/ml ([3]; Air-liquid interface culture, 0.4 μm pores) [×10⁻⁶ cm/s] | Papp at 120 min, 10 μg/ml ([3]; Air-liquid interface culture, 3 μm pores) [×10⁻⁶ cm/s] | Papp at 120 min, 10 μg/ml ([3]; Submersed culture, 3 μm pores) [×10⁻⁶ cm/s] | Papp at 120 min [3, 10] [×10⁻⁶ cm/s] | Transport in the fixed dose combination Symbicort versus applied alone ([1]; DP-4 Dry Powder Insufflator (AID_D), n = 3) | Size of delivered single particles [2] [μm] | Papp at 120 min ([3]; pH 7.4) [×10⁻⁶ cm/s] | Amount of budesonide in the cells ([4]; cell lysis after the last sample, total recovered amount 19.3±0.7 μg) [µg] | Change of budesonide transport on co-incubation with formoterol ([4]; solution, SLE and ALE, mixture 50 μM budesonide and 0.5 mM formoterol fumarate) | Papp values of fluorescein published by other groups ([5]; SLE, ref [8],[41],[49],[65]–[69]) [x 10–6 cm/s] | Papp [6] | Ratio Papp (ALE/ SLE) [6] | Papp [7] [×10⁻⁶ cm/s] | Transport in the fixed dose combination Symbicort versus applied alone [8] | Papp values of rhodamine 123 reported ([5]; ALE) [×10⁻⁶ cm/s] | Papp values of rhodamine 123 reported ([5]; SLE) [×10⁻⁶ cm/s] |
| --- | --- | --- | --- | --- | --- | --- | --- | --- | --- | --- | --- | --- | --- | --- | --- | --- | --- | --- | --- | --- |
| CCCC1O[C@@H]2C[C@H]3[C@@H]4CCC5=CC(=O)C=C[C@]5(C)[C@H]4[C@@H](O)C[C@]3(C)[C@]2(C(=O)CO)O1 (stereo partly shown) [Budesonide, budesonide] | 13.18 ± 0.06 | 1.36 |  |  |  |  |  |  | no differences | 3.2± 1.3 | 17.9 ± 1.36 | 0.96 | did not show changes |  |  |  |  |  |  |  |
